Source: ChEMBL document CHEMBL4138121, “Selective photocytotoxicity of anthrols on cancer stem-like cells: The effect of quinone methides or reactive oxygen species” (Eur J Med Chem, 2017)
Activity calls are given as the source filed them. The rule behind the calls is not given here.

What was measured:
HCT-116 [1] = assay: Photocytotoxicity against human HCT116 cells assessed as growth inhibition irradiated at 350 nm at 4, 24, 48 hrs post compound addition for 5 mins measured after 72 hrs by MTT assay; assay type: functional, cell-based; settings: HCT-116, light or radiation study
[2] = Dark toxicity against human HCT116 cells after 72 hrs by MTT assay; assay type: cell-based, HCT-116
HCT-116 [3] = assay: Photocytotoxicity against human HCT116 cells assessed as growth inhibition irradiated at 420 nm at 4, 24, 48 hrs post compound addition for 5 mins measured after 72 hrs by MTT assay; assay type: functional, cell-based; settings: HCT-116, light or radiation study
[4] = Dark toxicity against human H460 cells after 72 hrs by MTT assay; assay type: cell-based, NCI-H460
NCI-H460 [5] = assay: Photocytotoxicity against human H460 cells assessed as growth inhibition irradiated at 350 nm at 4, 24, 48 hrs post compound addition for 5 mins measured after 72 hrs by MTT assay; assay type: functional, cell-based; settings: NCI-H460, light or radiation study
NCI-H460 [6] = assay: Photocytotoxicity against human H460 cells assessed as growth inhibition irradiated at 420 nm at 4, 24, 48 hrs post compound addition for 5 mins measured after 72 hrs by MTT assay; assay type: functional, cell-based; settings: NCI-H460, light or radiation study
MCF7 [7] = assay: Photocytotoxicity against human MCF7 cells assessed as growth inhibition irradiated at 350 nm at 4, 24, 48 hrs post compound addition for 5 mins measured after 72 hrs by MTT assay; assay type: functional, cell-based; settings: MCF7, light or radiation study
MCF7 [8] = assay: Photocytotoxicity against human MCF7 cells assessed as growth inhibition irradiated at 420 nm at 4, 24, 48 hrs post compound addition for 5 mins measured after 72 hrs by MTT assay; assay type: functional, cell-based; settings: MCF7, light or radiation study
[9] = Dark toxicity against human SUM159 cells after 72 hrs by MTT assay; assay type: cell-based, SUM-159-PT
HMLE [10] = assay: Anticlonogenic activity against HMLE-shEcad cells at 0.5 to 1 uM irradiated at 350 nm at 4 hrs post compound addition for 5 mins for 5 mins measured after 24 hrs by crystal violet staining-based assay; assay type: functional, cell-based; settings: Homo sapiens
SUM-159-PT [11] = assay: Photocytotoxicity against human SUM159 cells assessed as growth inhibition irradiated at 420 nm at 4, 24, 48 hrs post compound addition for 5 mins measured after 72 hrs by MTT assay; assay type: functional, cell-based; settings: light or radiation study
[12] = Dark toxicity against HMLE-shGFP cells after 72 hrs by MTT assay; assay type: cell-based; settings: human
[13] = Photocytotoxicity against HMLE-shGFP cells assessed as growth inhibition irradiated at 350 nm at 4, 24, 48 hrs post compound addition for 5 mins measured after 72 hrs by MTT assay; assay type: cell-based; settings: Homo sapiens, light or radiation study
[14] = Photocytotoxicity against HMLE-shGFP cells assessed as growth inhibition irradiated at 420 nm at 4, 24, 48 hrs post compound addition for 5 mins measured after 72 hrs by MTT assay; assay type: cell-based; settings: Homo sapiens, light or radiation study
[15] = Dark toxicity against HMLE-shEcad cells after 72 hrs by MTT assay; assay type: cell-based; settings: human
[16] = Photocytotoxicity against HMLE-shEcad cells assessed as growth inhibition irradiated at 350 nm at 4, 24, 48 hrs post compound addition for 5 mins measured after 72 hrs by MTT assay; assay type: functional, cell-based; settings: Homo sapiens, light or radiation study
[17] = Photocytotoxicity against HMLE-shEcad cells assessed as growth inhibition irradiated at 420 nm at 4, 24, 48 hrs post compound addition for 5 mins measured after 72 hrs by MTT assay; assay type: functional, cell-based; settings: Homo sapiens, light or radiation study
[18] = Anticlonogenic activity against HMLE-shGFP cells at 0.5 to 1 uM irradiated at 350 nm at 4 hrs post compound addition for 5 mins measured after 24 hrs by crystal violet staining-based assay; assay type: ADME, cell-based; settings: human
[19] = Cell cycle arrest in HMLE-shEcad cells assessed as delay in G1/S phase at 1 to 10 uM after 24 to 48 hrs in absence of irradiation by propidium iodide staining-based flow cytometric method; settings: human
HMLE [20] = assay: Cell cycle arrest in HMLE-shEcad cells assessed as accumulation at S phase at 1 to 10 uM irradiated at 420 nm at 4 hrs post compound addition for 5 mins measured after 24 to 48 hrs by propidium iodide staining-based flow cytometric method; assay type: functional; settings: Homo sapiens
HMLE [21] = assay: Cell cycle arrest in HMLE-shEcad cells assessed as accumulation at G2/M phase at 1 to 10 uM irradiated at 420 nm at 4 hrs post compound addition for 5 mins measured after 24 to 48 hrs by propidium iodide staining-based flow cytometric method; assay type: functional; settings: Homo sapiens
[22] = Cell cycle arrest in HMLE-shGFP cells assessed as accumulation at S phase at 1 to 10 uM irradiated at 420 nm at 4 hrs post compound addition for 5 mins measured after 24 to 48 hrs by propidium iodide staining-based flow cytometric method; settings: human
[23] = Cell cycle arrest in HMLE-shGFP cells assessed as accumulation at G2/M phase at 1 to 10 uM irradiated at 420 nm at 4 hrs post compound addition for 5 mins measured after 24 to 48 hrs by propidium iodide staining-based flow cytometric method; settings: human
[24] = Cytotoxicity against HMLE-shGFP cells at 10 uM irradiated at 420 nm at 4 hrs post compound addition for 5 mins measured after 48 hrs by propidium iodide staining-based flow cytometric method; assay type: cell-based; settings: human
HMLE [25] = assay: Cytotoxicity against HMLE-shEcad cells at 10 uM irradiated at 420 nm at 4 hrs post compound addition for 5 mins measured after 48 hrs by propidium iodide staining-based flow cytometric method; assay type: functional, cell-based; settings: Homo sapiens
MCF7 [26] = assay: Cell cycle arrest in human MCF7 cells in presence of irradiation; assay type: functional, cell-based
SUM-159-PT [27] = assay: Cell cycle arrest in human SUM159 cells in presence of irradiation; assay type: functional, cell-based
[28] = Induction of reactive oxygen species generation in HMLE-shGFP cells at 10 uM irradiated at 420 nm for 5 mins measured after 2 hrs by H2DCF-DA dye-based FACS analysis relative to non-irradiated cells; assay type: cell-based; settings: human
[29] = Induction of reactive oxygen species generation in HMLE-shEcad cells at 10 uM irradiated at 420 nm for 5 mins measured after 2 hrs by H2DCF-DA dye-based FACS analysis relative to non-irradiated cells; assay type: functional, Homo sapiens
[30] = Drug uptake in cytoplasm of HMLE-shGFP cells at 5 uM irradiated with UV-light measured after 2 to 3 hrs by confocal microscopic method; assay type: ADME, subcellular; settings: human
[31] = Drug uptake in cytoplasm of HMLE-shEcad cells at 5 uM irradiated with UV-light measured after 2 to 3 hrs by confocal microscopic method; assay type: ADME, subcellular; settings: human
[32] = Drug uptake in nucleus of HMLE-shGFP cells at 5 uM irradiated with UV-light measured after 2 to 3 hrs by confocal microscopic method; assay type: ADME, subcellular; settings: human
[33] = Drug uptake in nucleus of HMLE-shEcad cells at 5 uM irradiated with UV-light measured after 2 to 3 hrs by confocal microscopic method; assay type: ADME, subcellular; settings: human
[34] = Dark toxicity against human MCF7 cells after 72 hrs by MTT assay; assay type: cell-based
[35] = Cell cycle arrest in HMLE-shEcad cells at 1 to 5 uM after 24 to 48 hrs in absence of irradiation by propidium iodide staining-based flow cytometric method; settings: human
[36] = Cell cycle arrest in HMLE-shGFP cells at 1 to 5 uM after 24 to 48 hrs in absence of irradiation by propidium iodide staining-based flow cytometric method; settings: human
HMLE [37] = assay: Cell cycle arrest in HMLE-shEcad cells assessed as delay in S/G2 phase at 5 uM irradiated at 420 nm at 4 hrs post compound addition for 5 mins measured after 24 to 48 hrs by propidium iodide staining-based flow cytometric method; assay type: functional; settings: Homo sapiens
[38] = Cell cycle arrest in HMLE-shGFP cells assessed as delay in S/G2 phase at 5 uM irradiated at 420 nm at 4 hrs post compound addition for 5 mins measured after 24 to 48 hrs by propidium iodide staining-based flow cytometric method; settings: human
[39] = Drug uptake in cytoplasm of HMLE-shGFP cells at 5 uM irradiated at 420 nm for 5 mins measured after 2 to 3 hrs by confocal microscopic method; assay type: ADME, subcellular; settings: human
[40] = Drug uptake in nucleus of HMLE-shGFP cells at 5 uM irradiated at 420 nm for 5 mins measured after 2 to 3 hrs by confocal microscopic method; assay type: ADME, subcellular; settings: human
[41] = Drug uptake in cytoplasm of HMLE-shGFP cells at 10 uM in absence of irradiation measured after 2 to 3 hrs by confocal microscopic method; assay type: ADME, subcellular; settings: human
[42] = Drug uptake in nucleus of HMLE-shGFP cells at 10 uM in absence of irradiation measured after 2 to 3 hrs by confocal microscopic method; assay type: ADME, subcellular; settings: human
[43] = Drug uptake in plasma membranes of HMLE-shGFP cells at 5 uM irradiated at 420 nm for 5 mins measured after 2 to 3 hrs by confocal microscopic method; assay type: ADME, cell membranes, Plasma membrane; settings: human
[44] = Drug uptake in intracellular membranes of HMLE-shGFP cells at 5 uM irradiated at 420 nm for 5 mins measured after 2 to 3 hrs by confocal microscopic method; assay type: ADME, cell membranes, Intracellular membrane; settings: human
Calf thymus DNA [45] = assay: Binding affinity to calf thymus DNA at 4.2 x 10^-5 M by fluorescence spectrocopic method; assay type: nucleic-acid assay; settings: Bos taurus
Calf thymus DNA [46] = assay: Binding affinity to calf thymus DNA at 4.2 x 10^-5 M in presence of irradiation at 420 nm for 5 mins by fluorescence spectrocopic method; assay type: nucleic-acid assay; settings: Bos taurus
Calf thymus DNA [47] = assay: Binding affinity to calf thymus DNA at 4.2 x 10^-5 M by UV-vis spectrocopic method; assay type: nucleic-acid assay; settings: Bos taurus

| Structure (SMILES) | IC50 (HCT-116 [1]) [nM] | IC50 at 72 h [2] [nM] | IC50 (HCT-116 [3]) [nM] | IC50 at 72 h [4] [nM] | IC50 (NCI-H460 [5]) [nM] | IC50 (NCI-H460 [6]) [nM] | IC50 (MCF7 [7]) [nM] | IC50 (MCF7 [8]) [nM] | IC50 at 72 h [9] [nM] | Activity (HMLE [10]) | IC50 (SUM-159-PT [11]) [nM] | IC50 at 72 h [12] [nM] | IC50 [13] [nM] | IC50 [14] [nM] | IC50 at 72 h [15] [nM] | IC50 [16] [nM] | IC50 [17] [nM] | Activity [24] | Activity (HMLE [25]) | Activity (MCF7 [26]) | other results |
| --- | --- | --- | --- | --- | --- | --- | --- | --- | --- | --- | --- | --- | --- | --- | --- | --- | --- | --- | --- | --- | --- |
| OCc1ccc2cc3ccccc3cc2c1 | 1000 | > 100000 | 2000 | 33000 | 1000 | 2000 | 500 | 2000 | 13000 | inactive | 1000 | 33000 | 600 | 10000 | 22000 | 1000 | 2000 | Toxic | Active | inactive | Activity [18]: Non-Toxic; Activity [19]: Toxic; Activity (HMLE [20]): Active; Activity (HMLE [21]): Active; Activity [22]: Non-Toxic; Activity [23]: Non-Toxic; Activity (SUM-159-PT [27]): inactive; fold change (FC) [28]: 4; fold change (FC) [29]: 7; Drug uptake [30]: Active; Drug uptake [31]: Active; Drug uptake [32]: Not Active; Drug uptake [33]: Not Active |
| OCc1cc2cc3ccccc3cc2cc1O | 2000 | ≥ 100000 | 1000 | ≥ 100000 | 15000 | 10000 | 2000 | 3000 | 11000 | Active | 2000 | 11000 | 700 | 1000 | 17000 | 2000 | 1000 | Toxic | Active | inactive | IC50 at 72 h [34]: ≥ 100000 nM; Activity [35]: Non-Toxic; Activity [36]: Non-Toxic; Activity (HMLE [37]): Active; Activity [38]: Toxic; Activity (SUM-159-PT [27]): inactive; Drug uptake [39]: Active; Drug uptake [40]: Not Active; Drug uptake [41]: Active; Drug uptake [42]: Not Active; Drug uptake [43]: Active; Drug uptake [44]: Active; Activity (Calf thymus DNA [45]): inactive; Activity (Calf thymus DNA [46]): Active; Activity (Calf thymus DNA [47]): inactive |
